US20110124742A1, “COMPOSITION AND METHOD OF ADIPOSE CELL DIFFERENTIATION INHIBITION” (NATIONAL YANG-MING UNIVERSITY, priority 2008, published 2011)

Columns and labels:
Format in all cases: cell-based
3T3-L1 adipose cell [1] = test: MTT assay, cell viability of 3T3-L1 adipose cell; settings: 0.25 mM (maximal amount)
3T3-L1 adipose cell [2] = test: 3T3-L1 adipose cell differentiation assay, triglyceride content per unit protein; settings: day 9, control 0.1% DMSO
Description: In the present invention, 3T3-L1 fibroblast cell is purchased from Bioresource collection and research center. Medium for 3T3-L1 fibroblast cell culture contains 10% (v/v) FBS, Dulbecco's modified Eagle's high-glucose medium containing 1% (v/v) penicillin (10000 U/ml) and streptomycin (10 mg/ml). Cell culture is performed in 37 C, 10% CO2 incubators. Subculture is performed at 80-90% cell confluence. After cell reaches 100% confluence, differentiation solution is used for differentiation. The complete differentiation takes 9 days. Differentiation solution contains 0.5 mM IBMX, 10 μg/ml insulin, 0.5 μM dexamethasone in 10% FBS DMEM. Two or three days after 3T3-L1 fibroblast cell reaching 100% confluence (day 0), the original 10% FBS DMEM is removed and differentiation solution is added. Replace cell culture medium at day 3 and day 6 with 10% FBS DMEM containing 10 μg/ml insulin. Harvest cells at day 9 of differentiation for cell morphology observation (Juan, C. C.; Chang, C. L.; Lai, Y. H.; Ho, L. T., Endothelin-1 induces lipolysis in 3T3-L1 adipocytes. Am. J. Physiol. Endocrinol. Metab. 2005, 288, E1146-52).
Mature 3T3-L1 adipose cell stores energy in the form of triglyceride of cell's oil drop. In order to study if plant essential oil is able to inhibit lipid accumulation in 3T3-L1 pre-adipose cell, we use cellular accumulated triglyceride content as an indicator of adipose cell differentiation. The examination method is as follows. Remove 3T3-L1 cell culture medium, wash cell with PBS for three times. Add protein lysis buffer (50 mM Tris-HCl, 150 mM NaCl, 0.5% sodium deoxycholate, 1% NP-40, 0.1% SDS) containing 10-fold diluted protease inhibitor into each well. Transfer mixture of scraped cells and buffer into microcentrifuge tube. Take 5 μl of homogenized cell mixture and 250 μl of reagent for reaction. The reaction is complete at room temperature in 1 hour, and then detects OD550 nm. Use OD value to calculate triglyceride concentration from a Merck multi-system calibrator generated standard curve. Determine triglyceride and protein concentration in each well, and the division of these two values (mg TG/mg protein) represents triglyceride content per unit protein in the cell. […]
Dilute Acorus essential oil (density 1.10 g/ml) to 25, 62.5, and 125 mg/ml with DMSO. Until cell growth reaches post confluence (day 0), diluted Acorus essential oil solution is added into differentiation solution in 1:1000 dilution into cell (final concentration is 25, 62.5, and 125 μg/ml). While replacing growth medium containing insulin at day 3 and day 6, replenish each concentration of Acorus essential oil in culture medium as well as the ones adding 0.1% DMSO as controls. The analysis at day 9 discovered that 25 μg/ml Acorus essential oil reduces triglyceride content per cell unit protein to 77% relative to its control. Acorus essential oil at 62.5 and 125 μg/ml essential oil reduces it to 55% and 20% relative to its control (FIG. 2a).
Ten ml of Acorus essential oil dissolved in hexane (5 ml essential oil and 5 ml hexane) is loaded into prepacked silica gel glass column and eluted by hydrophobicity (Table 2). Essential oil can be separated into 5 portions based on each component's hydrophobicity. Remove elution solvent by lypholizer, dissolve each component in 2 ml DMSO or methanol, and store it in glass vial. 3T3-L1 is used as a cell model, we add various fractions in DMSO or methanol at concentration of 50 μg/ml into cell differentiation medium and growth medium. At day 9 of complete differentiation, analyze triglyceride content per cell unit protein. […] Therefore, the second fraction has been chosen for further analysis.
After identifying the second fraction of Acorus essential oil as α-asarone and β-asarone, we further examine the effect of these two compounds on adipose cell differentiation inhibition. We dissolve α-asarone and β-asarone in DMSO to make concentration of 0.015, 0.03, 0.06, 0.13, and 0.25 M solution. […]

PPARγ [3] = test: PPARγ protein expression by western blot in 3T3-L1 cell; settings: 3 days, α-tubulin internal control
Description: (§1) Western blot analysis: Prepare 12% SDS-PAGE as follows. Recipe of separating gel contains 2.5 ml of 1.5 M Tris-HCl pH 8.8, 100 μl of 10% SDS, 3 ml of acrylamide/bis (37.5:1; 40%), 4.35 ml RO water, 50 μl of 10% ammonium persulfate, and 5 μl of TEMED. Recipe of stacking gel contains 1.25 ml of 0.5 M Tris-HCl pH 6.8, 50 μl of 10% SDS, 0.065 ml of acrylamide/bis (37.5:1; 40%), 3.05 ml of RO water, 25 μl of APS and 5 μl of TEMED. Load same amount of protein in each well, and electrophoresis is performed under 100V for 2 hours. Prepare transfer buffer (10 mM CAPS-NaOH, 10% methanol, pH 11.0), and use methanol to rinse PVDF transfer membrane. After electrophoresis is complete, remove SDS-PAGE gel, cover the gel and PVDF membrane with transfer buffer rinsed 3 MM paper. Put it into transfer tank full of transfer buffer, electrophoresis under 500 mA for 1 hour. Take transfer membrane out, block it with 5% skim milk in TBST (20 mM Tris, 137 mM NaCl, 0.01% Tween-20), and wash it with TBST briefly. Add primary antibody for 2-hour reaction, wash membrane with TBST for three times, 15 minutes each. Add appropriate amount of secondary antibody for 1 hour, wash membrane with TBST for three times, 15 minutes each. In the end, evenly cover ECL on the transfer membrane, place membrane in the film cassette, and expose it to X-ray film. Develop the film for analysis.
(§2) Analyze cells of β-asarone supplement for 3 days by western analysis. The expression of PPARγ from cells treated with β-asarone at concentration of 0.03, 0.06, and 0.13 mM is 97%, 117%, and 111% relative to its normal differentiated control with no significant difference. When β-asarone reaches 0.25 mM, the expression of PPARγ reduces to 45% relative to its control (FIG. 12). In terms of another differentiation marker gene C/EBPα, the expression of C/EBPα treated with β-asarone at concentrations of 0.03 and 0.06 mM is 113% and 77% relative to its control with no statistical difference. However, when β-asarone reaches 0.13 mM and 0.25 mM, the expression of C/EBPα reduces to 43% and 33% relative to its control (FIG. 13).

C/EBPα [4] = test: C/EBPα mRNA expression by RT-PCR in 3T3-L1 cell; settings: 3 days, GAPDH internal control
Description: (§3) RNA extraction: Remove 3T3-L1 cell medium directly from 10 cm petri dish, add 1 ml of Trizol reagent, and scrape off cells. Transfer cell and reagent mixture into a microcentrifuge tube. Add 200 μl chloroform in each tube and vortex for 15 seconds until it is clouded. Leave it on ice for 2-3 minutes at 4 C, spin it at 12000 rpm for 20 minutes. Transfer supernatant to another microcentrifuge tube, add equal amount of isopropylalcohol, mix and leave it on ice for 10 minutes. Spin it at 12000 rpm for 10 minutes at 4 C. After centrifugation, remove supernatant and save RNA pellet in the bottom. Add 75% cold ethanol, spin it at 7500 rpm for 10 minutes at 4 C. Remove ethanol after centrifugation and air dry the pellet until the edge is clear. Add appropriate amount of DEPC H2O to dissolve RNA pellet, and determine RNA concentration by OD260/OD280 nm with a spectrophotometer.
(§4) RT-PCR: Take 2 μg of RNA for reverse transcription reaction. Mix RNA, DEPC H2O and 0.25 μg random primer to make total volume of 12 μl. Keep it at 70 C for 10 minutes, and then leave it on ice. Add 4 μl of 5× first-strand buffer, 2 μl of 0.1 M dithiothreitol, 1 μl of 10 mM dNTP and 1 μl of SuperScript™ II reverse transcriptase 200 U/μl. Keep it at 42 C for 1.5 hours, and then heat it at 70 C for 15 minutes to stop reverse transcription. Take 1 μl of cDNA from reverse transcription, mix with 5 μl of 10×PCR buffer, 1 μl of 10 mM dNTP, 2 μl of primer, 40.5 μl of sterile water, and 0.5 μl of Taq DNA polymerase (1 U/μl) for PCR reaction. The SEQ ID NO: 1 to SEQ ID NO: 6 is listed from the top to bottom accordingly. PCR program is listed as follows: 95 C/5 min; 25˜30 cycles of 95 C/1 min, 55 C/1 min, 72 C/1 min; 72 C/10 min, and stop reaction at 4 C.
(§5) Because PPARγ and C/EBPα are early marker genes during adipose cell differentiation, these genes have been analyzed from cells harvested after 3 days of β-asarone addition. […]

PPARγ [5] = test: PPARγ mRNA expression by RT-PCR in 3T3-L1 cell; settings: 3 days, GAPDH internal control
Description: as §3, §4, §5

C/EBPα [6] = test: C/EBPα protein expression by western blot in 3T3-L1 cell; settings: 3 days, α-tubulin internal control
Description: as §1, §2

3T3-L1 adipose cell [7] = test: Oil red staining of 3T3-L1 adipose cell; settings: 0.03, 0.06, 0.13, 0.25 mM, day 9
Description: Acorus essential oil inhibition effect on cell differentiation can be visualized under microscope by oil red staining. It is performed as follows. Dissolve 0.03 g of Oil red O in 10 ml of isopropylalcohol as stock solution. Mix 2.4 ml of stock solution and 1.6 ml of PBS and filter it before staining. Remove medium from cells, add appropriate amount of filtered staining solution for 15 minutes, wash cell three times with PBS for 5 minutes each, and then add 4% paraformaldehyde for 15 minutes to fix cells, repeat wash step by PBS. Add 0.1% Triton X-100 for 30 seconds, and repeat wash step by PBS. Add appropriate amount of hematoxylin for 30 seconds followed by one last wash step by PBS. Observe the image under a microscope and record the image.

Row | SMILES | cell viability rate relative to normal differentiated control (3T3-L1 adipose cell [1]) [%] | triglyceride content relative to normal differentiation control (3T3-L1 adipose cell [2]; 0.015 mM) [%] | triglyceride content relative to normal differentiation control (3T3-L1 adipose cell [2]; 0.03 mM) [%] | triglyceride content relative to normal differentiation control (3T3-L1 adipose cell [2]; 0.06 mM) [%] | triglyceride content relative to normal differentiation control (3T3-L1 adipose cell [2]; 0.13 mM) [%] | triglyceride content relative to normal differentiation control (3T3-L1 adipose cell [2]; 0.25 mM) [%] | PPARγ protein expression relative to normal differentiated control (PPARγ [3]; 0.03 mM) [%] | PPARγ protein expression relative to normal differentiated control (PPARγ [3]; 0.06 mM) [%] | PPARγ protein expression relative to normal differentiated control (PPARγ [3]; 0.13 mM) [%] | C/EBPα mRNA expression relative to normal differentiated control (C/EBPα [4]; 0.03 mM) [%] | C/EBPα mRNA expression relative to normal differentiated control (C/EBPα [4]; 0.06 mM) [%] | C/EBPα mRNA expression relative to normal differentiated control (C/EBPα [4]; 0.13 mM) [%] | PPARγ mRNA expression relative to normal differentiated control (PPARγ [5]; 0.03 mM) [%] | PPARγ mRNA expression relative to normal differentiated control (PPARγ [5]; 0.06 mM) [%] | PPARγ mRNA expression relative to normal differentiated control (PPARγ [5]; 0.13 mM) [%] | C/EBPα protein expression relative to its control (C/EBPα [6]; 0.03 mM) [%] | C/EBPα protein expression relative to its control (C/EBPα [6]; 0.06 mM) [%] | C/EBPα protein expression relative to its control (C/EBPα [6]; 0.25 mM) [%] | oil red staining, red oil covered area (3T3-L1 adipose cell [7])
1 | C/C=C/c1cc(OC)c(OC)cc1OC (single isomer, unassigned) [α-asarone, reference compound] | 78 | 107 | 106 | 99 | 104 | 105 |  |  |  |  |  |  |  |  |  |  |  |  | 
2 | C/C=C\c1cc(OC)c(OC)cc1OC (single isomer, unassigned) [β-asarone] | 79 | 101 | 90 | 91 | 66 | 47 | 97 | 117 | 111 | 99 | 94 | 96 | 96 | 94 | 90 | 113 | 77 | 33 | red oil covered area is decreasing
